From patent US20100003712A1, “BIOMARKER FOR ASSESSING RESPONSE TO CHYMASE TREATMENT” (priority 2008, published 2010)

Legend:
IL-18 levels in saliva = assay: IL-18 levels in human saliva after 14 days of dosing; format: in vivo; settings: human subjects
Method: To examine the dose effects of COMPOUND NO. 1 on the IL-18 levels, subjects were treated with 0, 100, 600 mg of COMPOUND NO. 1 for 14 days and the saliva samples were collected. IL-18 levels in the samples were measured by ELISA as described above. […] 1 at 600 mg as compared to the placebo group (FIG. 8). The IL-18 levels were similar in the placebo group and the subjects treated with COMPOUND NO. 1 at 100 mg.

other serine proteases = settings: cited from earlier work
[1] = target: T1, recombinant human chymase (Homo sapiens, UniProt P23946); assay: reversal of chymase-induced decrease of IL-18 levels in human saliva (ELISA); format: biochemical; settings: 37° C.; for dose-dependent reversal of chymase-induced decrease of IL-18 levels: 0-10,000 nM compound, human saliva; for dose-dependent reversal of chymase-induced decrease of IL-18 levels / IC50: 80 nM chymase, 1 hr; for IC50: n=3, ELISA, read-out: IC50 for reversal of chymase-induced IL-18 reduction; for reversal of chymase-induced reduction of IL-18 levels: chymase 2 μg/ml, COMPOUND No. 3 1 μM or chymostatin 3 μg/ml, 1 h
T1 construct: made in house
T1 sequence (P23946 22-247): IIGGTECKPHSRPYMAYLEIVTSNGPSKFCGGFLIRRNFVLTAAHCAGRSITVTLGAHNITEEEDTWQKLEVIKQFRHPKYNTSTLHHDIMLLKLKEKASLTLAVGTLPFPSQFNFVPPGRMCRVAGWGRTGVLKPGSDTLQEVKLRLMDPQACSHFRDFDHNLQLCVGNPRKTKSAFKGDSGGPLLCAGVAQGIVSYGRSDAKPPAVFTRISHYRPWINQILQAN
Method: (§1) The digestion was measured using the enzyme-linked immunosorbent assay (ELISA) kit (R&D Systems). […] As the ELISA detection provided quantitative measurement and high-throughput screening capacity, it was used for the following experiments.
Next, activities of the recombinant chymase and COMPOUND NO. 3 were examined with endogenous IL-18.
The dose effects of the chymase inhibitors on IL-18 levels were also examined. […] The IL-18 levels were measured using ELISA as described above.
Next, the effects of various serine proteases and inhibitors on IL-18 levels were examined.

[2] = test system: endogenous chymase activity and other proteases activity in saliva samples; assay: IL-18 levels in saliva samples incubated with protease inhibitors, no added chymase (ELISA); format: biochemical, human; settings: 37° C., 1 hour
Method: To determine the effects of additional protease inhibitors on the endogenous IL-18 levels, the pan protease inhibitors and/or COMPOUND No. 3 were incubated with saliva samples at 37° C. for 1 hour. […] Ten μM of COMPOUND NO.

proteinase 3 = target: T2, proteinase 3 (Homo sapiens, UniProt P24158); assay: reversal of proteinase 3-induced reduction of IL-18 in saliva (ELISA); format: biochemical; settings: proteinase 3 2 μg/ml + compound 1 μM; 37° C., 1 h
T2 sequence (P24158 28-248): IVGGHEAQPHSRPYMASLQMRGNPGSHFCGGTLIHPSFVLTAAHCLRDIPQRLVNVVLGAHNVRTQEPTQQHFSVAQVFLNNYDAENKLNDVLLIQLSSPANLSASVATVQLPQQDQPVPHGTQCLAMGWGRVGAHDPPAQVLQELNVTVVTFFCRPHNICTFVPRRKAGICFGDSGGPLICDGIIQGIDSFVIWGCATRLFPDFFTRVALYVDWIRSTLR
Method: (§2) Next, the effects of various serine proteases and inhibitors on IL-18 levels were examined. The saliva samples were incubated with vehicle (DMSO/PBS), chymase (2 μg/ml), COMPOUND No. 3 (1 μM), chymase (2 μg/ml)+COMPOUND No. 3 (1 μM), chymostatin (3 μg/ml), chymase (2 μg/ml)+chymostatin (3 μg/ml), cathepsin G (2 μg/ml), cathepsin G (2 μg/ml)+COMPOUND No. 3 (1 μM), elastase (0.5 μg/ml), elastase (0.5 μg/ml)+COMPOUND No. 3 (1 μM), proteinase 3 (2 μg/ml), proteinase 3 (2 μg/ml)+COMPOUND No. 3 (1 μM), tryptase (1 μg/ml), or tryptase (1 μg/ml)+COMPOUND 3 (1 μM) at 37° C. for 1 h. […] In contrast, cathepsin G and elastase had no effect on IL-18 levels. […] However, the reduction of IL-18 by these two enzymes was not reversed by COMPOUND No. 3.

tryptase = assay: reversal of tryptase-induced reduction of IL-18 in saliva (ELISA); format: biochemical; settings: tryptase 1 μg/ml + compound 1 μM; 37° C., 1 h
Method: as §2

endogenous IL-18 = assay: effect of serine proteases on endogenous IL-18 levels in saliva samples (ELISA); format: biochemical, human; settings: 37° C.; for effect of serine protease on IL-18 levels: saliva, 1 h, chymase 2, cathepsin G 2, elastase 0.5, proteinase 3 2, tryptase 1 μg/ml
Method: Next, activities of the recombinant chymase and COMPOUND NO. 3 were examined with endogenous IL-18. One ml of saliva samples were collected from six subjects and incubated with vehicle (DMSO/PBS), chymase (80 nM), and chymase+COMPOUND No. 3 (1 μM) at 37° C. for 3 hr.
To determine the dose effects of the recombinant chymase on IL-18 levels, 1-300 nM of the recombinant chymase were incubated with saliva samples at 37° C. for 1 hr.
as §2

[3] = test system: recombinant mature human IL-18; assay: cleavage of recombinant mature human IL-18 by chymase (Western blot, ELISA); format: biochemical; settings: 37° C.
Method: A recombinant human chymase was generated according to Kervinen et al. (2008). A hundred ng of the recombinant mature human IL-18 (rIL-18, R&D Systems, 614 McKinley Place NE, Minneapolis, Minn. 55413) was incubated with the recombinant chymase (w/w 1:25) in PBS at 37° C. for various time points. The digestion products were separated on a 4-12% gradient gel. Western blot analysis was done with a specific monoclonal antibody against human IL-18. […] The exact cleavage sites were not clear. Without being bound to any theory, the mature IL-18 may be cleaved by the recombinant human chymase into the ˜16 kD fragment which may be further degraded into the ˜12 kD fragment. […] In addition, the chymase-induced cleavage of rIL-18 was both time (FIG. 1A) and dose dependent (FIG. 1B).
as §1

## CP(=O)(O)C(C(=O)N/C=C/c1ccc(F)c(F)c1)c1csc2ccc(Cl)cc12 (stereo not shown) [COMPOUND NO. 1]
IL-18 levels in saliva; 100 mg for 14 days
  IL-18 levels in saliva compared to the placebo group, 100 mg: similar
IL-18 levels in saliva; 600 mg for 14 days, p<0.03
  IL-18 levels in saliva compared to the placebo group, 600 mg: significant increase
Other serine proteases
  cross activity with other serine proteases: little or no cross activity

## CC(C)OC(=O)OCOP(=O)(O)C(C(=O)N/C=C/c1cc(Cl)cc(Cl)c1)c1csc2ccc(Cl)cc12 (stereo not shown) [COMPOUND NO. 2]
[1]
  dose-dependent reversal of chymase-induced decrease of IL-18 levels: dose-dependently reversed
  IC50: 1460 ± 563 nM

## O=C(N/C=C/c1cc(Cl)cc(Cl)c1)C(c1csc2ccc(Cl)cc12)P(=O)(O)O (stereo not shown) [COMPOUND NO. 3]
[1]
  dose-dependent reversal of chymase-induced decrease of IL-18 levels: dose-dependently reversed
  IC50: 3600 ± 928 nM
  reversal of chymase-induced reduction of IL-18 levels: reversed this reduction
[1]; chymase 80 nM + compound 1 μM, 3 hr, subjects 1-3 and 6
  reversal of chymase-induced decrease of IL-18 levels, subjects 1-3 and 6: reversed completely
[1]; chymase 80 nM + compound 1 μM, 3 hr, subjects 4 and 5
  reversal of chymase-induced decrease of IL-18 levels, subjects 4 and 5: reverted to a large degree
[1]; saliva of six subjects, chymase 80 nM + compound 1 μM, 3 hr
  reversal of chymase-induced decrease of IL-18 levels: reversed or prevented
[2]; 1 or 10 μM
  reversal of the decrease in IL-18 levels in incubated saliva: reversed some of the decrease
[2]
  increase of IL-18 levels at 10 μM compared with 1 μM: almost two fold
Proteinase 3
  reversal of proteinase 3-induced reduction of IL-18: not reversed
tryptase
  reversal of tryptase-induced reduction of IL-18: not reversed

## CC(C)C[C@H](NC(=O)[C@@H](NC(=O)N[C@@H](Cc1ccccc1)C(=O)O)[C@@H]1CCN=C(N)N1)C(=O)N[C@H](C=O)Cc1ccccc1 [chymostatin, reference compound]
[1]
  reversal of chymase-induced reduction of IL-18 levels: reversed the reduction

## elastase
Endogenous IL-18
  effect of serine protease on IL-18 levels: no effect

B1: cathepsin G: serine protease (protein, UniProt P08311 21-244, looked up)
Cathepsin G: IIGGRESRPHSRPYMAYLQIQSPAGQSRCGGFLVREDFVLTAAHCWGSNINVTLGAHNIQRRENTQQHITARRAIRHPQYNQRTIQNDIMLLQLSRRVRRNRNVNPVALPRAQEGLRPGTLCTVAGWGRVSMRRGTDTLREVQLRVQRDRQCLRIFGSYDPRRQICVGDRRERKAAFKGDSGGPLLCNNVAHGIVSYGKSSGVPPEVFTRVSSFLPWIRTTMRS
Endogenous IL-18
  effect of serine protease on IL-18 levels: no effect

B2: recombinant chymase: recombinant human chymase generated according to Kervinen et al. (2008) (protein, UniProt P23946 22-247, looked up)
Chymase: T1 sequence (P23946 22-247)
[3]; 80 nM chymase, 4 mg/ml rIL-18, PBS, 1.5 h, without chymase ~4000
  rIL-18 immunoreactivity or levels in the presence of chymase, PBS: ~1300 ng/mL
[3]; 80 nM chymase, 4 mg/ml rIL-18, saliva, 1.5 h, without chymase ~3,000
  rIL-18 immunoreactivity or levels in the presence of chymase, saliva: ~1,000 ng/ml
[3]; 100 ng rIL-18, chymase w/w 1:25, PBS, fragments ~16 and ~12 kD
  cleavage of mature human IL-18 (Western blot): able to cleave
Endogenous IL-18; 1-300 nM chymase in saliva samples, 1 hr, n=3
  EC50: 60.4 ± 15.2 nM
Endogenous IL-18; chymase 80 nM, saliva of six subjects, 3 hr
  effect on immunoreactivity or levels of endogenous IL-18: decrease
Endogenous IL-18
  effect of serine protease on IL-18 levels: reduced

B3: Proteinase 3: serine protease (protein, UniProt P24158 28-248, looked up)
Myeloblastin: T2 sequence (P24158 28-248)
Endogenous IL-18
  effect of serine protease on IL-18 levels: reduced IL-18 levels significantly
